Laboratory results taken from PMC5610175, “The Kinetochore Receptor for the Cohesin Loading Complex” (Cell, 2017).
Residues, ends and D or L forms follow the SMILES beside them.

What was measured:
Scc2^1-181-Scc4 (WT) = target: T1, Scc2^1-181-Scc4 (WT) (Saccharomyces cerevisiae, UniProt P40090+Q04002); assay: Peptide binding to Scc2^1-181-Scc4 WT by biolayer interferometry; set-up: species or system budding yeast; details: for binding to Scc2^1–181-Scc4 in vitro (in words): Scc2^1–181-Scc4 WT
T1 construct: made in house; host or cells: bacteria (E. coli is stated only for the Ctf19 complex proteins)
T1 sequence (P40090 1-624): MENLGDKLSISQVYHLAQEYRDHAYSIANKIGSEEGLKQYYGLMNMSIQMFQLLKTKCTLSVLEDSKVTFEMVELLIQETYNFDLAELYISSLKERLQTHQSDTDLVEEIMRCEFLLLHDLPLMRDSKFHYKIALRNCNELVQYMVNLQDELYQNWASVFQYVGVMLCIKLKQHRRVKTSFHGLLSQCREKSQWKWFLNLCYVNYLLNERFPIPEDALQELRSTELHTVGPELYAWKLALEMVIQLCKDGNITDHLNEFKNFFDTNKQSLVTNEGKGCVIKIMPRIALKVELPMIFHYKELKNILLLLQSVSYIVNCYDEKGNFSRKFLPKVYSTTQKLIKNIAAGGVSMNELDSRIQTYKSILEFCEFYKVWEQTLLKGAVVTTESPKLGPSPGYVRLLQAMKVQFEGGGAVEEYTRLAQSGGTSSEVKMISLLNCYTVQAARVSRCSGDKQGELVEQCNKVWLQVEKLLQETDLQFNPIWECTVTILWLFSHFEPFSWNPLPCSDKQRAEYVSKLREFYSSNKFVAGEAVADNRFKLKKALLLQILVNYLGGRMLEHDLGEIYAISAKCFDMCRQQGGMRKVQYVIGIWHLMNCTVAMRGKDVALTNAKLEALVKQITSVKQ
T1 sequence (Q04002 1-181 partner limits assumed): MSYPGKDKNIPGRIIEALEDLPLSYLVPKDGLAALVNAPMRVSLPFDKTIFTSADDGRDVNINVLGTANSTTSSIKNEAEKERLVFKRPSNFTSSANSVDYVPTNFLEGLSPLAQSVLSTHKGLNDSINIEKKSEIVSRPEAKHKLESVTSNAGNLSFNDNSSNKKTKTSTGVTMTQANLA
Procedure: Figure S5 Synthetic Ctf19^1–11 binds Scc2^1–181-Scc4, and Binding Requires Phosphorylation of Ctf19 Residue T4 or S5, Related to Figure 6 Experiments were carried out as in Figure 6B (error bars – +/−SD for three independent experiments, obscured by data points where not visible). m3 refers to immobilized Scc2^1-181-Scc4^m3. Ctf19 peptides and Scc2^1-181-Scc4 complexes used are listed in the table along with measured dissociation constants (Kd; SE – standard error for best-fit binding curve; single site, specific binding; Phos. – phosphorylated residues). TEXT PRINTED IN THE PICTURE: Ctf19 residues 1-11; Phos. none: Kd(±SE)(μM): n.d. (Scc2^1-181-Scc4: WT) | Ctf19 residues 1-11; Phos. pT4: Kd(±SE)(μM): 1757(6000+) (Scc2^1-181-Scc4: WT) | Ctf19 residues 1-11; Phos. pS5: Kd(±SE)(μM): 122(66) (Scc2^1-181-Scc4: WT); Kd(±SE)(μM): n.d. (Scc2^1-181-Scc4: m3) | Ctf19 residues 1-6; Phos. pT4;pS5: Kd(±SE)(μM): 22.6(3.0) (Scc2^1-181-Scc4: WT)
We used biolayer interferometry (ForteBio) to quantify the interaction between Scc2^1-181–Scc4 and synthetic peptides derived from the N-terminal region of Ctf19 (Tufts University Core Facility, Boston). For all steps, we used octet buffer (40mM HEPES, pH 7.5; 200mM NaCl; 1mM DTT) and low-volume 96-well opaque black plates. […] This step was allowed to reach saturation before a final incubation in octet buffer.
To derive binding curves, we first applied a linear correction so that all association steps began at zero response units. We then performed a linear drift correction by subtracting the signal for Scc2^1-181-Scc4 incubated in buffer alone during the association step (no peptide, linear subtraction for each time point, independent control for each experiment). We then applied a loading factor to correct for the Scc2^1-181-Scc4 immobilization efficiency for each well. From these normalized association curves, we extracted maximum responses for each well by averaging the signal across the final ten seconds of the association step. We performed these operations for three independent experiments, performed with new tips and samples, for each data point. […] Data points represent mean maximum responses, and error bars show the standard deviation for the three experiments. Fits were determined using GraphPad Prism software assuming a single specific binding site.

[1] = test system: analog-sensitive DDK (Cdc7-AS3/Dbf4); assay: DDK activity assay: phosphate transfer to Ctf19-Mcm21 by analog-sensitive DDK; format: biochemical, S. cerevisiae; details: Ctf19-Mcm21 substrate, γ-^32[P]-ATP, one hour at 30°C, autoradiography, similar to those that inhibit kinase activity in vivo (Wan et al., 2006)
Procedure: Figure S2 Determinants of Ctf19 Phosphorylation by DDK, Related to Figure 1 (A) Products of phosphorylation reactions containing Ctf19-Mcm21, analog-sensitive DDK, γ-^32[P]-ATP, and increasing concentrations of PP1. (B) Reactions carried out as in panel A, except wild-type DDK was used as in Figure 1B. After phosphorylation, reactions were subjected to a brief cleavage reaction by incubation with trypsin (top, autoradiography). Identical cleavage reactions were carried out in the absence of DDK and ATP to identify Ctf19-Mcm21 cleavage fragments (bottom; Coomassie). A schematic of the cleavage reaction is shown below (PDB: 3ZXU). (C) Phosphorylation of mutant Ctf19-Mcm21 complexes by purified DDK. Phosphorylation reactions were carried out as in panel A except that PP1 was not included. Substrates are indicated below. […] Reactions were carried out as in (B) in the presence or absence of an equimolar amount of purified Ctf3 complex.
An S. cerevisiae strain in which Cdc7 has been tagged at its C terminus with a TAP tag (calmodulin binding peptide – TEV site – tandem Protein A tags) was grown to an optical density (A600) of 2 in 12 l of yeast extract peptone dextrose (YPD) medium. […]
For phosphorylation reactions, purified DDK was concentrated to approximately 20uM as determined by absorbance at 280nm. […] Reaction products were analyzed by SDS-PAGE and autoradiography.

[2] = test system: centromeric Scc2 in ctf3Δ cells expressing DBF4-FRB and CTF19-FKBP12; assay: Artificial tethering of Dbf4-FRB to Ctf19-FKBP12: centromeric Scc2 localization by ChIP-qPCR; format: cell-based, budding yeast; details: rapamycin 1 μM, 2.5 hr, nocodazole and benomyl, versus DMSO, at least four independent experiments
Procedure: (F) Scc2 localization was assessed by ChIP-qPCR in the presence or absence of DDK tethering, CTF3, and Ctf19 phosphorylation sites. Wild-type (AM21613), ctf19-9A (AM21681), ctf19-2A (AM22360), ctf3Δ (AM21614), ctf19-9A ctf3Δ (AM21617), ctf19-2A ctf3Δ (AM22672), and control (AM21486) strains, all expressing DBF4-FRB and CTF19-FKBP12, were arrested in G1 for 3 hr before release into medium containing nocodazole, benomyl, and either DMSO (no DDK tethering) or rapamycin (DDK tethering; 1 μM) for 2.5 hr. Mean values of at least four independent experiments are shown. Error bars indicate SE (^∗p < 0.05; ^∗∗p < 0.01; Student’s t test, unpaired, two-tails; ns, not significant).
To artificially tether Dbf4 to the kinetochores, Dbf4 was tagged with FRB (pFA6a-FRB-KanMX6), and CTF19, ctf19-9A and ctf19-2A were tagged with FKBP12-TRP1 (pFA6a-FKBP12-TRP1). Proteins were tagged at their C-termini by one-step cassette integrations at their original gene loci as previously described ([Haruki et al., 2008]). Yeast strains for these experiments also carried TOR1-1, which confers rapamycin resistance, and the fpr1Δ mutation. Tethering of FRB and FKBP12 fusion proteins was induced by addition of rapamycin to the medium at a final concentration of 1 μM. For control cultures, an equal volume of DMSO was added instead. […]

## CSCC[C@H](N)C(=O)N[C@@H](CC(=O)O)C(=O)N[C@@H](Cc1ccccc1)C(=O)N[C@H](C(=O)N[C@@H](COP(=O)(O)O)C(=O)N[C@@H](CC(=O)O)C(=O)O)[C@@H](C)OP(=O)(O)O [Ctf19 residues 1-6; Phos. pT4;pS5] (HELM PEPTIDE1{M.D.F.[C[C@@H](OP(=O)(O)O)[C@H](N[*:1])C(=O)[*:2]].[O=C([C@H](COP(=O)(O)O)N[*:1])[*:2]].D}$$$$V2.0)
Scc2^1-181-Scc4 (WT); immobilized Scc2^1-181-Scc4 WT on NiNTA tips, 40mM HEPES, pH 7.5, 200mM NaCl, 1mM DTT, three independent experiments, SE for best-fit binding curve, single site, specific binding
  Kd: 22.6 µM

## CC(C)(C)n1nc(-c2cccc3ccccc23)c2c(N)ncnc21 [PP1]
[1]
  concentration at which phosphate transfer to Ctf19 was inhibited: ~25 µM

## CO[C@H]1C[C@@H]2CC[C@@H](C)[C@@](O)(O2)C(=O)C(=O)N2CCCC[C@H]2C(=O)O[C@H]([C@H](C)C[C@@H]2CC[C@@H](O)[C@H](OC)C2)CC(=O)[C@H](C)/C=C(\C)[C@@H](O)[C@@H](OC)C(=O)[C@H](C)C[C@H](C)/C=C/C=C/C=C/1C [rapamycin]
[2]
  effect on Ctf3 requirement for centromeric Scc2 localization (in words): bypassed the Ctf3 requirement

## MDFTSDTTNSH [Ctf19 residues 1-11; Phos. none, unmodified synthetic Ctf19^1–11 peptide]
Scc2^1-181-Scc4 (WT); pH 7.5, listed as unmodified Ctf19^1–11
  binding to Scc2^1–181-Scc4 in vitro (in words): did not interact with Scc2^1–181-Scc4
Scc2^1-181-Scc4 (WT); pH 7.5, listed as unphosphorylated peptide
  binding to Scc2^1–181-Scc4 in vitro (in words): did not
